Measurements: PubChem BioAssay AID330 (DTP/NCI, 2004)
Values joined by “and” are separate entries in the source; they are usually repeats but may differ in a detail not shown here. Equal entries are not always repeated. Inconclusive results and toxic doses are left out. Rule for the calls: active = survival T/C of 150% or more; inactive = T/C below 125% in these data.

System: P388 leukemia ip, CD2F1 mice, survival T/C
Assay: NCI In Vivo Anticancer Drug Screen. Data for tumor model P388 Leukemia (intraperitoneal) in CD2F1 (CDF1) mice
Conditions: endpoint: median survival time, higher = longer survival
How it was run: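 Mice carrying the transplanted tumor received test compound or vehicle. Survival was recorded in each group, and the value is the treated-group measurement divided by that of the vehicle-treated control group.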

[1] = dose: 100.0 mg/kg/injection, schedule: Q04DX003 (ip), vehicle: Klucel (hydroxypropylcellulose) (HPC)
[2] = dose: 200.0 mg/kg/injection, schedule: Q04DX003 (ip), vehicle: Klucel (hydroxypropylcellulose) (HPC)
[3] = dose: 400.0 mg/kg/injection, schedule: Q04DX003 (ip), vehicle: Klucel (hydroxypropylcellulose) (HPC)
[4] = dose: 6.25 mg/kg/injection, schedule: Q01DX005 (ip), vehicle: saline with Tween-80
[5] = dose: 12.5 mg/kg/injection, schedule: Q01DX005 (ip), vehicle: saline with Tween-80
[6] = dose: 25.0 mg/kg/injection, schedule: Q01DX005 (ip), vehicle: saline with Tween-80
[7] = dose: 50.0 mg/kg/injection, schedule: Q01DX005 (ip), vehicle: saline with Tween-80
[8] = dose: 100.0 mg/kg/injection, schedule: Q01DX005 (ip), vehicle: saline with Tween-80
[9] = dose: 200.0 mg/kg/injection, schedule: Q01DX005 (ip), vehicle: saline with Tween-80
[10] = dose: 100.0 mg/kg/injection, schedule: Q01DX001 (ip), vehicle: Klucel (hydroxypropylcellulose) (HPC)
[11] = dose: 200.0 mg/kg/injection, schedule: Q01DX001 (ip), vehicle: Klucel (hydroxypropylcellulose) (HPC)
[12] = dose: 400.0 mg/kg/injection, schedule: Q01DX001 (ip), vehicle: Klucel (hydroxypropylcellulose) (HPC)
[13] = dose: 100.0 mg/kg/injection, schedule: Q01DX009 (ip), vehicle: saline with Tween-80
[14] = dose: 200.0 mg/kg/injection, schedule: Q01DX009 (ip), vehicle: saline with Tween-80
[15] = dose: 50.0 mg/kg/injection, schedule: Q01DX005 (ip), vehicle: Klucel (hydroxypropylcellulose) (HPC)
[16] = dose: 100.0 mg/kg/injection, schedule: Q01DX005 (ip), vehicle: Klucel (hydroxypropylcellulose) (HPC)
[17] = dose: 200.0 mg/kg/injection, schedule: Q01DX005 (ip), vehicle: Klucel (hydroxypropylcellulose) (HPC)
[18] = dose: 60.0 mg/kg/injection, schedule: Q01DX005 (ip), vehicle: saline with Tween-80
[19] = dose: 120.0 mg/kg/injection, schedule: Q01DX005 (ip), vehicle: saline with Tween-80
[20] = dose: 240.0 mg/kg/injection, schedule: Q01DX005 (ip), vehicle: saline with Tween-80

Measured: T/C

CC(C)(C)SC(=O)C1(C(O)c2ccccc2)CC1 (configuration not stated)
inactive: [1] 106 % of control | [2] 115 % of control | [3] 112 % of control

N#CC(OC(=O)c1ccccc1)C(OC(=O)c1ccccc1)C(OC(=O)c1ccccc1)C(COC(=O)c1ccccc1)OC(=O)c1ccccc1 (configuration not stated)
inactive: [4] 97 % of control | [5] 95 % of control | [6] 86 % of control

CN(C)[C@@H]1C(=O)C(C(=O)NCN2CCCCC2)=C(O)[C@@]2(O)C(=O)C3=C(O)c4c(O)cccc4[C@@](C)(O)[C@H]3C[C@@H]12
inactive: [7] 95 % of control | [8] 95 % of control | [9] 104 % of control

CC(=O)n1c(Cl)c(C=O)c2ccccc21
inactive: [10] 99 % of control | [11] 99 % of control | [12] 100 % of control

NC(=S)N/N=C\C(=O)c1cccc([N+](=O)[O-])c1
inactive: dose: 50.0 mg/kg/injection, schedule: Q01DX009 (ip), vehicle: saline with Tween-80 94 % of control | [13] 105 % of control | [14] 96 % of control

N#CC(Br)CNC(=O)Oc1ccccc1 (configuration not stated)
inactive: [15] 104 % of control | [16] 106 % of control | [17] 105 % of control

CCOc1ccc2c(c1)C(C)=CC(C)(C)N2
inactive: [1] 99 % of control | [2] 102 % of control | [3] 102 % of control

COc1ccc2sc3c(C)ccc(NCC4CCCN5CCCCC45)c3c(=O)c2c1 (configuration not stated)
inactive: [7] 95 % of control | [8] 90 % of control | [9] 90 % of control

CCc1cccc(C)c1NC(=O)CCC(=O)OC
inactive: [18] 102 % of control | [19] 97 % of control | [20] 96 % of control

NNC(=O)CN(CC(=O)NN)CC(=O)NN
inactive: dose: 50.0 mg/kg/injection, schedule: Q01DX005 (ip), vehicle: water 99 % of control | dose: 100.0 mg/kg/injection, schedule: Q01DX005 (ip), vehicle: water 101 % of control | dose: 200.0 mg/kg/injection, schedule: Q01DX005 (ip), vehicle: water 110 % of control

CCOC(=O)C1=CNN=CC12C(=O)NC(=Nc1ccccc1)N2c1ccccc1 (configuration not stated)
inactive: dose: 100.0 mg/kg/injection, schedule: Q04DX002 (ip), vehicle: saline with Tween-80 93 % of control | dose: 200.0 mg/kg/injection, schedule: Q04DX002 (ip), vehicle: saline with Tween-80 104 % of control | dose: 400.0 mg/kg/injection, schedule: Q04DX002 (ip), vehicle: saline with Tween-80 95 % of control

COc1ccc(-c2nc3[nH]c(=S)[nH]c(=O)c3nc2-c2ccc(OC)c(OC)c2)cc1OC
inactive: [10] 103 % of control | [11] 105 % of control | [12] 90 % of control

Cn1c(=O)c2nc(-c3ccccn3)cnc2n(C)c1=O
inactive: dose: 25.0 mg/kg/injection, schedule: Q01DX001 (ip), vehicle: Klucel (hydroxypropylcellulose) (HPC) 116 % of control | dose: 50.0 mg/kg/injection, schedule: Q01DX001 (ip), vehicle: Klucel (hydroxypropylcellulose) (HPC) 106 % of control | [10] 100 % of control and 122 % of control and 92 % of control | [11] 95 % of control (2×) and 96 % of control | [12] 94 % of control and 95 % of control

CC(C)CNN(CC(C)C)C(N)=O
inactive: [13] 102 % of control | [14] 105 % of control

Cn1c(COc2ccc(/C=N/Nc3ccnc(N/N=C/c4ccc(OCc5c[n+]6ccccc6n5C)cc4)n3)cc2)c[n+]2ccccc12
inactive: [5] 105 % of control | [6] 106 % of control | [7] 104 % of control and 107 % of control | [8] 99 % of control | [9] 97 % of control

CC1(C)OC(C(CCl)OS(C)(=O)=O)C(C(CCl)OS(C)(=O)=O)O1 (configuration not stated)
inactive: dose: 50.0 mg/kg/injection, schedule: Q04DX003 (ip), vehicle: Klucel (hydroxypropylcellulose) (HPC) 92 % of control | [1] 100 % of control | [2] 100 % of control

CC(=O)Nc1[nH]ncc1C#N
inactive: [18] 98 % of control | [19] 107 % of control | [20] 101 % of control

COC(=O)c1n[nH]n(Cc2cccs2)c1=O (tested in a mixture with another compound)
inactive: [15] 108 % of control | [16] 103 % of control | [17] 97 % of control

CC[n+]1cccc(C(=O)c2ccccc2)c1
inactive: dose: 3.75 mg/kg/injection, schedule: Q01DX005 (ip), vehicle: saline 103 % of control | dose: 7.5 mg/kg/injection, schedule: Q01DX005 (ip), vehicle: saline 97 % of control | dose: 15.0 mg/kg/injection, schedule: Q01DX005 (ip), vehicle: saline 102 % of control | dose: 30.0 mg/kg/injection, schedule: Q01DX005 (ip), vehicle: saline 105 % of control

CN1CCC(O)(c2ncc(Br)c3ccccc23)CC1
inactive: dose: 60.0 mg/kg/injection, schedule: Q01DX005 (ip), vehicle: saline + alcohol 97 % of control | dose: 120.0 mg/kg/injection, schedule: Q01DX005 (ip), vehicle: saline + alcohol 93 % of control

CCCCCCCCCCCC(=O)CCCC
inactive: dose: 100.0 mg/kg/injection, schedule: Q04DX003 (ip), vehicle: other 104 % of control | dose: 200.0 mg/kg/injection, schedule: Q04DX003 (ip), vehicle: other 113 % of control | dose: 400.0 mg/kg/injection, schedule: Q04DX003 (ip), vehicle: other 118 % of control

COC(=O)C(CCCCNC(=O)OCc1ccccc1)NC(=O)C(CCCCNC(=O)OCc1ccccc1)NC(=O)OC(C)(C)C (configuration not stated)
inactive: [4] 100 % of control | [5] 97 % of control | [6] 97 % of control

Nc1nc2scnc2c(=O)[nH]1
inactive: [5] 88 % of control | [6] 101 % of control | [7] 109 % of control and 97 % of control | [8] 102 % of control | [9] 112 % of control

COc1cc(NCCCN=C(N)N)c2ncccc2c1
inactive: dose: 1.56 mg/kg/injection, schedule: Q01DX005 (ip), vehicle: saline with Tween-80 99 % of control | dose: 3.13 mg/kg/injection, schedule: Q01DX005 (ip), vehicle: saline with Tween-80 98 % of control | [4] 102 % of control and 92 % of control

CCCCCCc1cc(-c2cc(CCCCCC)nc(N)n2)nc(N)n1
inactive: dose: 60.0 mg/kg/injection, schedule: Q01DX005 (ip), vehicle: saline 100 % of control | dose: 120.0 mg/kg/injection, schedule: Q01DX005 (ip), vehicle: saline 115 % of control

Clc1ccc(CSc2cnnc3ccccc23)c(Cl)c1
inactive: dose: 75.0 mg/kg/injection, schedule: Q01DX009 (ip), vehicle: suspension in saline 96 % of control | dose: 150.0 mg/kg/injection, schedule: Q01DX009 (ip), vehicle: suspension in saline 89 % of control | dose: 300.0 mg/kg/injection, schedule: Q01DX009 (ip), vehicle: suspension in saline 89 % of control
